Results: patent publication US20040048834A1, “Antitumoral compounds” (priority 2000, published 2004)
Counter-ions that a name gives are not always drawn. Like-named read-outs stand apart in the source and are kept apart here.

Tests used:
Type in all cases: cell-based
[1] = tested on: MC116; assay: Cytotoxicity MTS, leukemias/lymphomas, MC116; conditions: 4-Parameter Curve Fit, NA = not active, read-out: Cytotoxicity IC50 Lymphoma (undifferentiated) MC116
[2] = tested on: Hut 78; assay: Cytotoxicity MTS, leukemias/lymphomas, Hut 78; conditions: 4-Parameter Curve Fit, NA = not active, read-out: Cytotoxicity IC50 Lymphoma (Cutaneous T cell) Hut 78
[3] = tested on: Molt 3; assay: Cytotoxicity MTS, leukemias/lymphomas, Molt 3; conditions: 4-Parameter Curve Fit, NA = not active, read-out: Cytotoxicity IC50 ALL (Acute lymphobalstic) Molt 3
[4] = tested on: SW 694; assay: Cytotoxicity MTS, solid tumors, Fibrosarcoma SW 694; conditions: 4-Parameter Curve Fit, NA = not active
[5] = tested on: Mel-28; assay: Cytotoxicity MTS, solid tumors, Melanoma Mel-28; conditions: 4-Parameter Curve Fit, NA = not active
[6] = tested on: HT-29; assay: Cytotoxicity MTS, solid tumors, Colon HT-29; conditions: 4-Parameter Curve Fit, NA = not active
[7] = tested on: NCI-H187; assay: Cytotoxicity MTS, solid tumors, SCL NCI-H187; conditions: 4-Parameter Curve Fit, NA = not active
[8] = tested on: OSA-FH; assay: Cytotoxicity MTS, solid tumors, Osteosarcoma OSA-FH; conditions: 4-Parameter Curve Fit, NA = not active
[9] = tested on: PC-3; assay: Cytotoxicity MTS, solid tumors, Prostate PC-3; conditions: 4-Parameter Curve Fit, NA = not active
[10] = tested on: FADU; assay: Cytotoxicity MTS, solid tumors, Pharynx FADU; conditions: 4-Parameter Curve Fit, NA = not active
[11] = tested on: DU-145; assay: Cytotoxicity MTS, solid tumors, Prostate DU-145; conditions: 4-Parameter Curve Fit, NA = not active
[12] = tested on: CHSA; assay: Cytotoxicity MTS, solid tumors, Chondrosarcoma CHSA; conditions: 4-Parameter Curve Fit, NA = not active
[13] = tested on: LNCAP; assay: Cytotoxicity MTS, solid tumors, Prostate LNCAP; conditions: 4-Parameter Curve Fit, NA = not active
[14] = tested on: PANC-1; assay: Cytotoxicity MTS, solid tumors, Pancreas PANC-1; conditions: 4-Parameter Curve Fit, NA = not active
[15] = tested on: 5637; assay: Cytotoxicity MTS, solid tumors, Bladder 5637; conditions: 4-Parameter Curve Fit, NA = not active
[16] = tested on: A549; assay: Cytotoxicity MTS, solid tumors, NSCL A549; conditions: 4-Parameter Curve Fit, NA = not active
[17] = tested on: Y-79; assay: Cytotoxicity MTS, solid tumors, Retinoblastoma Y-79; conditions: 4-Parameter Curve Fit, NA = not active
[18] = tested on: MX-1; assay: Cytotoxicity MTS, solid tumors, Breast MX-1; conditions: 4-Parameter Curve Fit, NA = not active
[19] = tested on: Hs746t; assay: Cytotoxicity MTS, solid tumors, Gastric Hs746t; conditions: 4-Parameter Curve Fit, NA = not active
[20] = tested on: 786-O; assay: Cytotoxicity MTS, solid tumors, Renal 786-O; conditions: 4-Parameter Curve Fit, NA = not active
[21] = tested on: SK-HEP-1; assay: Cytotoxicity MTS, solid tumors, Liver SK-HEP-1; conditions: 4-Parameter Curve Fit, NA = not active
[22] = tested on: RAMOS; assay: Cytotoxicity MTS, leukemias/lymphomas, RAMOS; conditions: 4-Parameter Curve Fit, NA = not active, read-out: Cytotoxicity IC50 Lymphoma (Burkitts B cell) RAMOS
[23] = tested on: H9; assay: Cytotoxicity MTS, leukemias/lymphomas, H9; conditions: 4-Parameter Curve Fit, NA = not active, read-out: Cytotoxicity IC50 Lymphoma (T cell) H9
[24] = tested on: DU145; assay: Cytotoxicity of spisulosine analogs, DU145 (after Berjeron et al); conditions: methodology after Berjeron et al, NA=not active, read-out: Cytotoxicity IC50 DU145
[25] = tested on: HT29; assay: Cytotoxicity of spisulosine analogs, HT29 (after Berjeron et al); conditions: methodology after Berjeron et al, NA=not active, read-out: Cytotoxicity IC50 HT29
[26] = tested on: MEL28; assay: Cytotoxicity of spisulosine analogs, MEL28 (after Berjeron et al); conditions: methodology after Berjeron et al, NA=not active, read-out: Cytotoxicity IC50 MEL28
[27] = tested on: A549; assay: Cytotoxicity of spisulosine analogs, A549 (after Berjeron et al); conditions: methodology after Berjeron et al, NA=not active, read-out: Cytotoxicity IC50 A549
[28] = tested on: P388; assay: Cytotoxicity of spisulosine analogs, P388 (after Berjeron et al); conditions: methodology after Berjeron et al, NA=not active, read-out: Cytotoxicity IC50 P388
[29] = tested on: U-937; assay: Cytotoxicity MTS, leukemias/lymphomas, U-937; conditions: 4-Parameter Curve Fit, NA = not active, read-out: Cytotoxicity IC50 Lymphoma (Histiocytic) U-937

CCCCCCCCCCCCCCC(O)C(C)N (stereo not drawn) [drawing 126] showed an IC50 [1] of 9.58 µM, an IC50 [2] of 8.81 µM and an IC50 [3] of 0.00983 µM.

CCCCCCCCCCCCCCCC[C@@H](O)[C@H](C)N [drawing 113] was tested, and the IC50 [4] was 6.49 µM, the IC50 [5] was 7.21 µM and the IC50 [6] was 0.0643 µM. It also gave an IC50 [7] of 0.163 µM, an IC50 [8] of 0.183 µM and an IC50 [9] of 0.086 µM. The IC50 [10] was 0.0103 µM, the IC50 [11] was 0.0739 µM and the IC50 [12] was 0.018 µM. The IC50 [13] was 0.0444 µM, the IC50 [14] was 0.167 µM and the IC50 [15] was 0.0472 µM. The IC50 [16] was 0.0343 µM and the IC50 [17] was 4.65 µM.

For CCCCCCCCCCCCCCC(O)C(C)N (stereo not drawn) [drawing 128], the IC50 [3] was 26.1 µM.

CCCCCCCCCCCCCCCCC[C@@H](O)[C@H](C)N [drawing 114] showed an IC50 [4] of 10.4 µM, an IC50 [6] of 9.07 µM and an IC50 [7] of 7.17 µM. It also gave an IC50 [8] of 8.6 µM, an IC50 [9] of 0.049 µM and an IC50 [10] of 0.0812 µM. For the same compound, the IC50 [11] was 9.86 µM, the IC50 [12] was 1.58 µM and the IC50 [13] was 7.69 µM. For the same compound, the IC50 [14] was 0.722 µM, the IC50 [15] was 6.34 µM and the IC50 [16] was 9.79 µM.

CCCCCCCCCCCCCCC[C@@H](O)[C@@H](N)CF [drawing 122] showed an IC50 [5] of 2.54 µM, an IC50 [18] of 4.29 µM and an IC50 [9] of 21.8 µM. For the same compound, the IC50 [10] was 3.96 µM, the IC50 [11] was 0.0495 µM and the IC50 [12] was 4.62 µM. It also gave an IC50 [19] of 16.2 µM, an IC50 [20] of 3.3 µM and an IC50 [21] of 15.5 µM. For the same compound, the IC50 [15] was 1.45 µM and the IC50 [17] was 1.65 µM.

CCCCCCCCCCCCCCCCCC(O)C(C)N (stereo not drawn) showed an IC50 [1] of 10.9 µM and an IC50 [3] of 7.61 µM.

CCCCCCCCCCCCCCCC(O)C(N)CC (stereo not drawn) [drawing 127] was tested, and the IC50 [2] was 9.15 µM and the IC50 [3] was 0.0376 µM.

In the case of CCCCCCCCCCCCCCCCCC(=O)[C@H](C)N [drawing 131], the IC50 [22] is reported as 1.65 µM, the IC50 [23] is reported as 2.59 µM and the IC50 [3] is reported as 14.3 µM.

CCCCCCCCCCCCCCCC(=O)[C@@H](N)CC [drawing 121] showed an IC50 [18] of 1.72 µM, an IC50 [10] of 2.99 µM and an IC50 [20] of 59.8 µM. It also gave an IC50 [15] of 1.58 µM.

CCCCCCCCCCCCCC[C@@H](O)[C@H](C)N [drawing 115] gave an IC50 [4] of 10.1 µM, an IC50 [5] of 10.3 µM and an IC50 [6] of 0.264 µM. It also gave an IC50 [9] of 0.379 µM, an IC50 [10] of 0.0784 µM and an IC50 [11] of 0.201 µM. It also gave an IC50 [12] of 9.65 µM, an IC50 [13] of 0.0715 µM and an IC50 [14] of 0.0864 µM. It also gave an IC50 [15] of 0.0365 µM and an IC50 [16] of 10.1 µM.

CCCCCCCCCCCCCCC[C@@H](O)[C@@H](N)CC [drawing 116] gave an IC50 [4] of 7.57 µM, an IC50 [5] of 9.4 µM and an IC50 [6] of 9.11 µM. It also gave an IC50 [7] of 7.29 µM, an IC50 [8] of 8.52 µM and an IC50 [9] of 10.2 µM. It also gave an IC50 [10] of 0.225 µM, an IC50 [11] of 0.0755 µM and an IC50 [12] of 8.94 µM. The IC50 [13] was 6.35 µM, the IC50 [14] was 0.186 µM and the IC50 [15] was 7.8 µM. The IC50 [16] was 10.3 µM and the IC50 [17] was 9.51 µM.

For CCCCCCCCCCC[C@@H](O)[C@H](C)N [(2S,3R)-2-Amino-3-tetradecanol], the IC50 ([24]; Homo sapiens, DU-145, DU145) was 2.18 µM, the IC50 ([25]; Homo sapiens, HT-29, HT29) was 0.436 µM and the IC50 ([26]; Homo sapiens, SK-MEL-28, MEL28) was 2.18 µM. For the same compound, the IC50 ([27]; Homo sapiens, A549, A549) was 2.18 µM and the IC50 ([28]; Mus musculus, P388, P388) was 0.436 µM.

Compound CCCCCCCCCCCCCCC[C@@H](O)[C@H](C)N [drawing 47, (2S,3R)-2-Amino-3-octadecanol hydrochloride] has an IC50 ([24]; DU145, hydrochloride) of 0.0311 µM, an IC50 ([25]; HT29, hydrochloride) of 0.0155 µM and an IC50 ([26]; MEL28, hydrochloride) of 0.311 µM. It also gave an IC50 ([27]; A549, hydrochloride) of 0.0311 µM and an IC50 ([28]; P388, hydrochloride) of 0.0311 µM.

With CCCCCCCCCCCCCCCC(O)C(N)CC (stereo not drawn) [drawing 79] the IC50 ([24]; DU145) was 0.334 µM, the IC50 ([25]; HT29) was 0.334 µM and the IC50 ([26]; MEL28) was 0.334 µM. For the same compound, the IC50 ([27]; A549) was 0.334 µM and the IC50 ([28]; P388) was 0.334 µM.

CCCCCCCCCCCCCCCCC(O)C(C)N (stereo not drawn) gave an IC50 [29] of 0.0298 µM, an IC50 [1] of 8.82 µM and an IC50 [2] of 10.6 µM. The IC50 [3] was 1.12 µM.
